From US20240173319A1, “SOLID DOSE PHARMACEUTICAL COMPOSITION” (Sumitomo Pharma Oncology, Inc., priority 2019, published 2024)

What was measured:
Type in all cases: physicochemical
[1] = Log D (pH 7.4) of the API
Experimental: The hydrochloride salt of the compound of formula (I) was formulated into three (3) oral dose strengths (5, 25, and 125 mg dose [based on free base]). The physicochemical properties of the compound of formula (I), the active pharmaceutical ingredient (API), are summarized in Table 1.

[2] = Solubility of the API in media
Experimental: The solubility of the API was tested. In all media, solubility of the compound is good, namely the maximum tested dose of 125 mg was found soluble in 250 mL of media. […] This characterization may not be accurate for larger doses. Reference is made to Table 2.

[3] = Excipient compatibility study, related substances (unknown RRT)
Experimental: An initial excipient compatibility study was performed.
In the compatibility study, all the samples were evaluated for two (2) primary properties: appearance and related substances.
(close) for 4W with respect to their related substance profile.

[4] = 40° C./75% RH, open glass vial, 4 week

## COc1cc(Nc2nccc(Nc3cccnc3-c3ccccn3)n2)ccc1N1CCN(C)CC1.Cl [API, N2-[3-methoxy-4-(4-methylpiperazin-1yl)phenyl]-N4-[2-(pyridin-2-yl)pyridin 3-yl] pyrimidine-2,4-diamine hydrochloride]
[1]
  logD: 2.66
[2]; 0.1N HCl
  Maximum dose mg solubility in 250 ml: 256 mg
[2]; 0.1N HCl, pH 1.005, simulated gastric fluid
  solubility: 1.03 mg/mL
[2]; Water
  Maximum dose mg solubility in 250 ml: 252 mg
[2]; maximum tested dose of 125 mg in 250 mL of media
  Solubility characterization with reference to BCS classification: highly soluble
[2]; pH 4.5 Acetate buffer
  Maximum dose mg solubility in 250 ml: 253 mg
[2]; pH 4.5 acetate buffer, pH 4.508, aqueous buffer
  solubility: 1.01 mg/mL
[2]; pH 6.8 Phosphate buffer
  Maximum dose mg solubility in 250 ml: 245 mg
[2]; pH 6.8 phosphate buffer, pH 6.812, aqueous buffer
  solubility: 0.98 mg/mL
[2]; water, pH 6.213, water
  solubility: 1.01 mg/mL
[3]; [4]
  Total (related substances): 0.84%
  Unknown RRT 0.162: 0.11%
  Unknown RRT 0.866: BQL
  Unknown RRT 0.989: BQL
  Unknown RRT 1.046: BQL
  Unknown RRT 1.07: 0.07%
  Unknown RRT 1.08: 0.05%
  Unknown RRT 1.341: 0.2%
  Unknown RRT 1.38: 0.1%
  Unknown RRT 1.549: 0.19%
  Unknown RRT 1.633: 0.12%
[3]; Initial
  Total (related substances): 0.93%
  Unknown RRT 0.162: 0.12%
  Unknown RRT 0.989: BQL
  Unknown RRT 1.046: BQL
  Unknown RRT 1.07: 0.07%
  Unknown RRT 1.08: 0.06%
  Unknown RRT 1.341: 0.27%
  Unknown RRT 1.38: 0.08%
  Unknown RRT 1.549: 0.21%
  Unknown RRT 1.633: 0.12%
